# Measurements published in patent publication US20240101531A1, “PYRIDINAMINE DERIVATIVES AND THEIR USE AS POTASSIUM CHANNEL MODULATORS” (Xenon Pharmaceuticals Inc., priority 2022, published 2024).
# Counter-ions that a name gives are not always drawn.
# Target: human KV7.2/KV7.3 (Homo sapiens (Human), UniProt O43525+O43526)
# Assay: Potassium flux assay (IPG-2 AM dye)
# Type: cell-based
# Settings: TREX HEK 293 or HEK 293 cells expressing human KV7.2/KV7.3; arithmetic mean values
# From the text: This potassium flux assay employs the cell-permeable, potassium-sensitive dye, IPG-2 AM, to quantify potassium ion flux through potassium channels.
# In general, TREX HEK 293 or HEK 293 cells were stably transfected with either an inducible or non-inducible expression vector containing the full-length cDNA coding for the desired human KV7.2/KV7.3 or in combination with another full-length cDNA for a second desired human KV7 potassium channel. Potassium channel-expressing cell lines were induced with tetracycline (1 μg/mL), if required, and plated on 384-well poly-D-lysine (PDL)-coated plates in culture media (DMEM, containing 10% FBS and 1% L-glutamine). After overnight incubation, culture media was removed and cells were loaded with 5 μM IPG-2 AM dye for 1 hour in Assay buffer (140 mM NaCl, 20 mM RbCl, 2 mM CaCl2, 1 mM MgCl2, 10 mM HEPES (4-(2-hydroxyethyl)-1-piperazineethanesulfonic acid buffer), 10 mM glucose, adjusted with Tris to pH 7.4). Excess dye was removed, and cells incubated at room temperature for 20 minutes with or without test compound. A Hamamatsu FDSS μCell was used to perform a 1:1 addition of K challenge buffer (150 mM NaCl, 10 mM HEPES, 2 mM CaCl2, 10 mM KCl, 1 mM MgCl2, 10 mM glucose, adjusted with Tris to pH 7.4 for human KV7.2/KV7.3, and simultaneously read plates at excitation wavelength of 530 nm and emission wavelength of 558 nm. Non-potassium channel-mediated potassium influx was determined in the presence of DMSO, and maximal influx was determined in the presence of a known KV7.x channel modulator. For each test compound, a concentration response curve was generated with 16 concentrations points, 2-fold serial dilution starting at 30 μM and an EC50 value was determined.
row,Compound,EC50 [µM]
1,"Clc1ccc(Nc2nccc3cc(OCc4ccncn4)ccc23)cn1 [Example 51, N-(6-chloropyridin-3-yl)-6-(pyrimidin-4-ylmethoxy)isoquinolin-1-amine]",1 to 10
2,"CN1C(=O)CCC1COc1ccc2c(Nc3ccc(Cl)nc3)nccc2c1 (centres unmarked) [Example 53, 5-(((1-((6-chloropyridin-3-yl)amino)isoquinolin-6-yl)oxy)methyl)-1-methylpyrrolidin-2-one]",1 to 10
3,"COc1cc(Nc2nccc3cc(OCc4cnn(C)c4)ccc23)cnc1Cl [Example 54, N-(6-chloro-5-methoxypyridin-3-yl)-6-((1-methyl-1H-pyrazol-4-yl)methoxy)isoquinolin-1-amine]",< 1
4,"COc1cc(Nc2nccc3cc(OCc4cnn(C)c4)ccc23)cnc1C [Example 55, N-(5-methoxy-6-methylpyridin-3-yl)-6-((1-methyl-1H-pyrazol-4-yl)methoxy)isoquinolin-1-amine formate]",< 1
5,"Cn1nc(COc2ccc3c(Nc4ccc(Cl)nc4)nccc3c2)cc1C#N [Example 62, 3-(((1-((6-chloropyridin-3-yl)amino)isoquinolin-6-yl)oxy)methyl)-1-methyl-1H-pyrazole-5-carbonitrile]",1 to 10
6,"Cc1nnc(COc2ccc3c(Nc4ccc(Cl)nc4)nccc3c2)o1 [Example 63, N-(6-chloropyridin-3-yl)-6-((5-methyl-1,3,4-oxadiazol-2-yl)methoxy)isoquinolin-1-amine]",1 to 10
7,"Cn1cncc1COc1ccc2c(Nc3ccc(Cl)nc3)nccc2c1 [Example 65, N-(6-chloropyridin-3-yl)-6-((1-methyl-1H-imidazol-5-yl)methoxy)isoquinolin-1-amine]",< 1

# The remaining lines, values ahead:
row,EC50 [µM],Compound
1,< 1,"N#CC1(COc2ccc3c(Nc4ccc(Cl)nc4)nccc3c2)CCOCC1 [Example 50, 4-(((1-((6-chloropyridin-3-yl)amino)isoquinolin-6-yl)oxy)methyl)tetrahydro-2H-pyran-4-carbonitrile]"
2,< 1,"FC1(COc2ccc3c(Nc4ccc(Cl)nc4)nccc3c2)COC1 [Example 52, N-(6-chloropyridin-3-yl)-6-((3-fluorooxetan-3-yl)methoxy)isoquinolin-1-amine]"
3,< 1,"FC1(COc2ccc3c(Nc4cnc(Cl)nc4)nccc3c2)COC1 [Example 56, N-(2-chloropyrimidin-5-yl)-6-((3-fluorooxetan-3-yl)methoxy)isoquinolin-1-amine]"
4,1 to 10,"Cc1ncc(Nc2nccc3cc(OCC4(F)COC4)ccc23)cn1 [Example 57, 6-((3-fluorooxetan-3-yl)methoxy)-N-(2-methylpyrimidin-5-yl)isoquinolin-1-amine]"
5,≥ 30,"Cc1ncc(Nc2nccc3cc(OCC4(F)CNC4)ccc23)cn1 [Example 58, 6-((3-fluoroazetidin-3-yl)methoxy)-N-(2-methylpyrimidin-5-yl)isoquinolin-1-amine]"
6,10 to 30,"FC1(COc2ccc3c(Nc4ccc(Cl)nc4)nccc3c2)CNC1 [Example 59, N-(6-chloropyridin-3-yl)-6-((3-fluoroazetidin-3-yl)methoxy)isoquinolin-1-amine hydrochloride]"
7,1 to 10,"N#CC1(Oc2ccc3c(Nc4cnc(Cl)nc4)nccc3c2)CC1 [Example 60, 1-((1-((2-chloropyrimidin-5-yl)amino)isoquinolin-6-yl)oxy)cyclopropane-1-carbonitrile]"
8,1 to 10,"NC(=O)C1(Oc2ccc3c(Nc4cnc(Cl)nc4)nccc3c2)CC1 [Example 61, 1-((1-((2-chloropyrimidin-5-yl)amino)isoquinolin-6-yl)oxy)cyclopropane-1-carboxamide]"
9,< 1,"N#C[C@H]1C[C@](F)(COc2ccc3c(Nc4cnc(Cl)nc4)nccc3c2)C1 [Example 64, (1s,3s)-3-(((1-((2-chloropyrimidin-5-yl)amino)isoquinolin-6-yl)oxy)methyl)-3-fluorocyclobutane-1-carbonitrile]"
10,< 1,"FC(F)COc1ccc2c(Nc3cnc(Cl)nc3)nccc2c1 [Example 66, N-(2-chloropyrimidin-5-yl)-6-(2,2-difluoroethoxy)isoquinolin-1-amine]"
